Earlier results on two compounds are cited in patent publication US7943663B2, “Process and an apparatus for producing episesamin-rich compositions” (Suntory Holdings Limited, priority 2005, dated 2011).

The structures appear in SMILES notation.

Data set [1] has as its system β-oxidation enzymes in the liver. The following applies: rats, separately administered orally; compared with sesamin.
Another data set relates to fatty acid synthases. The following applies: rats, separately administered orally; sesamin versus episesamin.
The conditions of data set [2]: rat, po.

Consider `c1cc2c(cc1[C@H]1OC[C@H]3[C@@H]1CO[C@H]3c1ccc3c(c1)OCO3)OCO2` [Episesamin, episesamin], for which the “gene expression and enzymatic activity of β-oxidation enzymes in the liver” value in data set [1] was “markedly increased”. Further, the “activity for inhibiting fatty acid synthases” value in the data set with fatty acid synthases was “no difference”. In addition, the “transfer into organs (in vivo distribution)” value in data set [2] was “at least twice as much as that of sesamin”.

On to `c1cc2c(cc1[C@H]1OC[C@H]3[C@@H]1CO[C@@H]3c1ccc3c(c1)OCO3)OCO2` [Sesamin, sesamin], for which the “activity for inhibiting fatty acid synthases” value in the data set on fatty acid synthases is “no difference”.
